ChEMBL document CHEMBL1255251, “Effects of Escherichia coli lipopolysaccharide on telithromycin pharmacokinetics in rats: inhibition of metabolism via CYP3A” (Antimicrob Agents Chemother, 2008)

Assays:
Rattus norvegicus [1] = assay: AUC in Sprague-Dawley rat at 50 mg/kg, iv pretreated with Escherichia coli lipopolysaccharide (Rvb=1570 +/- 240 ug/min/ml); assay type: ADME, organism-based, Plasma; design: dose 50 mg/kg, route intravenous; settings: in vivo
[2] = Half life in Sprague-Dawley rat at 50 mg/kg, iv pretreated with Escherichia coli lipopolysaccharide (Rvb=159 +/- 56.3 min); assay type: ADME, organism-based; design: dose 50 mg/kg, route intravenous; settings: in vivo
[3] = Clearance in Sprague-Dawley rat at 50 mg/kg, iv pretreated with Escherichia coli lipopolysaccharide (Rvb=32.4+/- 5.25 ml/min/kg); assay type: ADME, organism-based; design: dose 50 mg/kg, route intravenous; settings: in vivo
[4] = Renal clearance in Sprague-Dawley rat at 50 mg/kg, iv pretreated with Escherichia coli lipopolysaccharide (Rvb=5.29 +/- 0.643 ml/min/kg); assay type: ADME, organism-based, Kidney; design: dose 50 mg/kg, route intravenous; settings: in vivo, read-out: CL_renal
Rattus norvegicus [5] = assay: Nonrenal clearance in Sprague-Dawley rat at 50 mg/kg, iv pretreated with Escherichia coli lipopolysaccharide (Rvb=27.2 +/- 5.02 ml/min/kg); assay type: ADME, organism-based; design: dose 50 mg/kg, route intravenous; settings: in vivo
[6] = Apparent volume of distribution in Sprague-Dawley rat at 50 mg/kg, iv pretreated with Escherichia coli lipopolysaccharide (Rvb=4,950 +/- 1160 ml/kg); assay type: ADME, organism-based; design: dose 50 mg/kg, route intravenous; settings: in vivo, read-out: Vdss(app)
Rattus norvegicus [7] = assay: AUC in Sprague-Dawley rat at 50 mg/kg, po pretreated with Escherichia coli lipopolysaccharide (Rvb=609 +/- 323 ug/min/ml); assay type: ADME, organism-based, Plasma; design: dose 50 mg/kg, route oral; settings: in vivo
[8] = Half life in Sprague-Dawley rat at 50 mg/kg, po pretreated with Escherichia coli lipopolysaccharide (Rvb=123 +/- 63.4 min); assay type: ADME, organism-based; design: dose 50 mg/kg, route oral; settings: in vivo
[9] = Cmax in Sprague-Dawley rat at 50 mg/kg, po pretreated with Escherichia coli lipopolysaccharide (Rvb=2.35 +/- 1.19 ug/ml); assay type: ADME, organism-based; design: dose 50 mg/kg, route oral; settings: in vivo
[10] = Tmax in Sprague-Dawley rat at 50 mg/kg, po pretreated with Escherichia coli lipopolysaccharide (Rvb=180 min); assay type: ADME, organism-based; design: dose 50 mg/kg, route oral; settings: in vivo
[11] = Renal clearance in Sprague-Dawley rat at 50 mg/kg, po pretreated with Escherichia coli lipopolysaccharide (Rvb=4.21 +/- 1.81 ml/min/kg); assay type: ADME, organism-based, Kidney; design: dose 50 mg/kg, route oral; settings: in vivo, read-out: CL_renal
[12] = Oral bioavailability in Sprague-Dawley rat at 50 mg/kg, po pretreated with Escherichia coli lipopolysaccharide (Rvb=38.8%); assay type: ADME, organism-based; settings: in vivo
[13] = Drug excretion in Sprague-Dawley rat urine assessed as unchanged drug at 50 mg/kg, iv after 24 hrs pretreated with Escherichia coli lipopolysaccharide (Rvb=16.5 +/- 2.32 %); assay type: ADME, organism-based; design: dose 50 mg/kg, route intravenous; settings: read-out: Drug uptake
[14] = Drug excretion in Sprague-Dawley rat urine assessed as unchanged drug at 50 mg/kg, po after 24 hrs pretreated with Escherichia coli lipopolysaccharide (Rvb=4.78 +/- 3.28 %); assay type: ADME, organism-based; design: dose 50 mg/kg, route oral; settings: read-out: Drug uptake
[15] = Drug absorption in Sprague-Dawley rat gastrointestinal tract at 50 mg/kg, iv after 24 hrs pretreated with Escherichia coli lipopolysaccharide (Rvb=8.53 +/- 4.64 %); assay type: ADME, organism-based; design: dose 50 mg/kg, route intravenous
[16] = Drug absorption in Sprague-Dawley rat gastrointestinal tract at 50 mg/kg, po after 24 hrs pretreated with Escherichia coli lipopolysaccharide (Rvb=5.73 +/- 4.57 %); assay type: ADME, organism-based; design: dose 50 mg/kg, route oral

**Q.** What does the source list for `CC[C@H]1OC(=O)[C@H](C)C(=O)[C@H](C)[C@@H](O[C@@H]2O[C@H](C)C[C@H](N(C)C)[C@H]2O)[C@](C)(OC)C[C@@H](C)C(=O)[C@H](C)[C@H]2N(CCCCn3cnc(-c4cccnc4)c3)C(=O)O[C@]12C` [TELITHROMYCIN]?
**A.** AUC (Rattus norvegicus [1]): 2880 µg/min/mL; half-life [2]: 2.55 h; clearance [3]: 19.4 mL/min/kg; CL renal [4]: 4.27 mL/min/kg; CL (Rattus norvegicus [5]): 15.1 mL/min/kg; Vd [6]: 3.28 L/kg; AUC (Rattus norvegicus [7]): 1460 µg/min/mL; half-life [8]: 2.33 h; Cmax [9]: 5030 ng/mL; Tmax [10]: 3 h; CL renal [11]: 3.17 mL/min/kg; bioavailability [12]: 50.7%; dose excreted at 24 h [13]: 23.8%; dose excreted at 24 h [14]: 9.54%; percent of dose recovered from gastrointestinal tract at 24 h [15]: 5.31%; percent of dose recovered from gastrointestinal tract at 24 h [16]: 9.63%
